Reference: patent US8618068B2, “Methods and low dose regimens for treating red blood cell disorders” (priority 2009, dated 2013)
Marks after values point to notes of the source that are not given here.

Tests used:
[1] = test system: human peripheral lymphocytes; assay: Chromosome aberrations in human peripheral lymphocytes; type: cell-based
Method: DMB was examined for the potential to induce chromosome aberrations in human peripheral lymphocytes in the presence and absence of an exogenous metabolic activation system (S9 mix). In the 3-hour cultures (without or with activation), the highest three concentrations (2450, 3500, and 5000 μg/mL) were analyzed for chromosome aberrations. In the 22-hour treatment, 288, 412 and 588 μg/ML were analyzed for chromosome aberrations. […] The aberrations in control cultures were within historical ranges. DMB was therefore considered negative for inducing structural or numerical chromosome aberrations in human peripheral lymphocytes with and without metabolic activation.

[2] = test system: β- and γ-globin gene promoters; assay: Double-luciferase reporter assay of γ-globin expression in GM979 cells; type: cell-based, murine
Excerpt: DMB was compared to arginine butyrate (AB) for its ability to induce y-globin expression in a double-luciferase reporter assay in murine erythroleukemia (GM979) cells transfected with the pLCR linked to the β- and γ-globin gene promoters linked to a different luciferase gene.

[3] = test system: micronucleated erythrocytes (PCEs); settings: rat, in vivo
Method: The potential for DMB to induce formation of micronuclei in vivo was evaluated as part of the initial 14-Day toxicity repeat dose toxicity study in rats administered doses of 0, 200, 600 and 1,000 mg/kg/day for 14 days.

hERG channels = target: T1, hERG channels (Homo sapiens, UniProt Q12809); assay: hERG channel, voltage-clamped human embryonic kidney cells; type: cell-based; settings: concentrations up to 1 mM (138 μg/mL)
T1 construct: expressed in transfected cells
Method: Cardiovascular safety pharmacology assessments included an in vitro screen to evaluate the effects of DMB on cardiac ion channel and an in vivo evaluation of cardiovascular and hemodynamic effects in Beagle dogs. Electrophysiologic effects were evaluated in laboratory studies utilizing voltage-clamped human embryonic kidney cells transformed by adenovirus cDNA and transfected with cDNA in order to stably express the human ether a-go-go related gene (hERG). The effect on cellular hERG channels was evaluated at DMB concentrations up to 1 mM (138 μg/mL).

[4] = Phase 2 trial in sickle cell disease patients, safety; type: in vivo, human; settings: 10, 20, 30 mg/kg/day
Method: A randomized, blinded dose-ranging Phase 1/2 clinical trial was performed in 24 US and Jamaican adult patients with sickle cell disease (including HbSS or S/β thalassemia). DMB was administered once daily for six week cycles of daily therapy with a 2 week treatment break between two cycles, then followed by a final 4 weeks without treatment. Three dose levels (10, 20, 30 mg/kg/day) were studied sequentially. Four out of 24 subjects were treated with placebo and 21 subjects were evaluable. Seven Patients (5 active/2 placebo) at 10 mg/kg, 6 patients (5 active/1 placebo) at 20 mg/kg, and 9 patients (7 active/1 placebo) at 30 mg/kg were randomized in the study. Patients ranged in age from 14 to 56 with a median age of 31 and were comprised of […]. Patients were followed for hematologic parameters focusing on fetal hemoglobin (HbF). HbF was measured by a Waters Empower 32 HPLC system with a Synchropak CM-300 column.

reticulocyte counts = assay: Reticulocyte counts in transgenic mice; type: in vivo; settings: 500 mg/kg/day
Excerpt: Transgenic mice containing the human β globin gene locus in a yeast artificial chromosome (βYAC) displaying the correct developmental regulation of ε-, γ-, and β-globin genes (with a silenced y-globin gene in the adult stage) were used to study the effects of DMB on γ-globin induction and erythroid cell production. In the μLCR-human A γ-globin transgenic mice, the y-globin mRNA expression relative to murine α-globin mRNA was increased by a mean of 1.8-fold above the baseline after treatment with DMB. In the βYAC transgenic mice at intraperitoneal (IP) doses of 500 mg/kg/day, DMB induced a 2-fold increase in human γ-globin mRNA synthesis relative to that of total non-α-globin. This level of induction was similar to that seen with 1,000 mg/kg/day of butyrate, and the changes were observed from 3 days after treatment initiation and persisted until 3 to 5 days after treatment termination.
Reticulocytosis was observed from day 3 up to day 12 (at the end of sampling).

γ-globin mRNA = γ-globin mRNA in anemic baboons given HU and DMB; type: in vivo; settings: HU 3 days/week
F-cells = F-cells in Bfu-e erythroid progenitor cultures; type: cell-based

T1 sequence (Q12809 whole entry): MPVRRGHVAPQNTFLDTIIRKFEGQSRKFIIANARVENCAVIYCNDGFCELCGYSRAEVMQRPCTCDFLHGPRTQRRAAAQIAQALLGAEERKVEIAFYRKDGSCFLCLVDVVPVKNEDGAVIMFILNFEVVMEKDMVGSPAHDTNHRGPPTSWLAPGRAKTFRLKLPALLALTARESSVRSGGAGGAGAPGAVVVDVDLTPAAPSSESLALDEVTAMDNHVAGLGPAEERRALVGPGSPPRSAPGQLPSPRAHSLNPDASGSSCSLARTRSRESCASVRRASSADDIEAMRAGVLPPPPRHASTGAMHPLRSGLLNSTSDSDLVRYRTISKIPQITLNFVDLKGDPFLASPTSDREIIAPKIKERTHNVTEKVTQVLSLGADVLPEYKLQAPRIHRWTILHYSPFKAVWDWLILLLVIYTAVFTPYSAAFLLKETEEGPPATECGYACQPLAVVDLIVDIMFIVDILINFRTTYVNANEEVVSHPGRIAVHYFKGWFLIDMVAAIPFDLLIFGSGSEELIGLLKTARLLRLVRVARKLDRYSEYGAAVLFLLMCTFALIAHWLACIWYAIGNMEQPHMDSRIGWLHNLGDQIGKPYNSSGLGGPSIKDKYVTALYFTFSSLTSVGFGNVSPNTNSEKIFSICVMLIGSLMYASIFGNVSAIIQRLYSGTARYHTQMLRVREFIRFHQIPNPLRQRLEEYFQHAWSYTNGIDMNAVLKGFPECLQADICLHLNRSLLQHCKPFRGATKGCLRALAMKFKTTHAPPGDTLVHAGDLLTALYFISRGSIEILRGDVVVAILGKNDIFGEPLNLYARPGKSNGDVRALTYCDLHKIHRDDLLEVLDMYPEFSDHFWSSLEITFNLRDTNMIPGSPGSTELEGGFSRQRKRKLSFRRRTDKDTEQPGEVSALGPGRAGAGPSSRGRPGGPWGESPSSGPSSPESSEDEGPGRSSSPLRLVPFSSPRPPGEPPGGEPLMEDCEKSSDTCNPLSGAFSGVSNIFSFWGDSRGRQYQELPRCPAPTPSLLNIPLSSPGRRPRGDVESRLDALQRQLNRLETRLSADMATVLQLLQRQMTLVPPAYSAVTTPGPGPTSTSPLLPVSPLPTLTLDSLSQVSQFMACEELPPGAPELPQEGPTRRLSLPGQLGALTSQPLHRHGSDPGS

## CCC(C)(C)C(=O)[O-].[Na+] [DMB, Sodium 2,2-dimethylbutyrate]
[1]
  numerical aberrations (polyploidy or endoreduplication): No test article-related increase
[1]; 3 h ± S9 up to 5000 μg/mL, 22 h up to 588 μg/mL
  structural chromosome aberrations compared to vehicle-treated cultures: no test article-related increases
[1]; with and without metabolic activation
  induction of structural or numerical chromosome aberrations: negative
[2]; 0.5 mM, compared to untreated controls, p ≦ 0.01
  Mean Fold Increase: 2.2*
[2]; Active Concentration 0.5 mM
  γ/(γ + β) globin Expression, Range: 0.033-0.052
[3]; male, Sprague Dawley
  plasma levels of DMB at which micronucleus activity occurred: exceeding 500 μg/mL
[3]; male, Sprague Dawley, 14 days
  micronucleated PCEs, mean: 3.3±0.16 MN PCEs/1,000 PCEs
[3]
  frequency of micronucleated erythrocytes (PCEs) compared to controls: statistically significant increase
  increase in micronucleated PCEs in female groups: not observed
  percent PCEs: no effect
  potential to cause genotoxicity (weight of evidence): limited potential to cause genotoxicity
hERG channels
  activity on hERG channel function: essentially no activity
[4]
  tolerability: well tolerated
Reticulocyte counts
  increase in reticulocyte counts: approximately 6.7 fold
γ-globin mRNA
  γ-globin mRNA increase above baseline: 290%
F-cells
  F-cells increase above F-cell levels in control cultures: 32-71%
